Where a name gives a salt, the structure may show the parent alone.
Legend:
[1] = tested on: SMN2 minigene (full length SMN2 minigene mRNA containing SMN2 exon 7); test: SMN2 minigene mRNA splicing RT-qPCR assay in cultured cells; format: cell-based, human; settings: HEK293H cells stably transfected with SMN2-A minigene, 24 hours, 7-point concentration curve, 1.5-fold relative to vehicle-treated cells; for EC (1.5-fold): Homo sapiens, HEK293-H, read-out: EC1.5x for production of full length SMN2 mRNA
Summary of the method: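 Read-out: full-length (exon 7-included) SMN2 minigene mRNA by multiplex RT-qPCR with GAPDH, efficiency-corrected (1+E)^−Ct, GAPDH-normalized and divided by vehicle. Stably transfected HEK293H cells, 24 h compound exposure, duplicates per concentration. Value is EC1.5x, reported as star ranges.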

[2] = tested on: Smn protein; test: Smn protein assay in cultured cells (SMN HTRF); format: cell-based, human; settings: 48 hours; for maximum fold (Fold) increase of Smn protein: SMA patient fibroblast cells, 7-point concentration data, fold increase relative to vehicle control (SMN HTRF); for EC1.5x (concentration giving 1.5-fold Smn protein increase): SMA Type 1 patient fibroblast cells (GM03813), 7-point concentration curve, SMN HTRF, concentration producing 1.5 times Smn protein vs DMSO vehicle control, read-out: EC1.5x for Smn protein expression
Summary of the method: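 Lysates in RIPA with protease inhibitors are incubated overnight at room temperature with HTRF anti-SMN antibodies. EC1.5x is derived from fold increase in ΔF over vehicle.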

Compound	EC (1.5-fold) [1] [µM]	maximum fold (Fold) increase of Smn protein [2]	EC1.5x (concentration giving 1.5-fold Smn protein increase) [2] [nM]	EC1.5x for production of full length SMN2 mRNA [1]
COc1ccc(-c2cc3ccc(N4CCNC[C@@H]4C)cc3oc2=O)cc1OC [Compound 472, 3-(3,4-dimethoxyphenyl)-7-[(2S)-2-methylpiperazin-1-yl]-2H-chromen-2-one]	1 to 3	* (maximum fold increase of ≤1.2)	–	–
CN1CCN(c2cc(F)c3cc(-c4cn5cccnc5n4)c(=O)oc3c2)CC1 [Compound 351, 5-fluoro-3-(imidazo[1,2-a]pyrimidin-2-yl)-7-(4-methylpiperazin-1-yl)-2H-chromen-2-one]	0.3 to 1	* (maximum fold increase of ≤1.2)	–	–
Cc1cn2cc(-c3cc4ccc(N5CC6(CNC6)C5)cc4oc3=O)nc2c(C)n1 [Cpd 971, 7-(2,6-diazaspiro[3.3]hept-2-yl)-3-(6,8-dimethylimidazo[1,2-a]pyrazin-2-yl)-2H-chromen-2-one]	< 0.1	***** (fold increase >1.65)	< 300	–
CSc1nccn2cc(-c3cc4ccc(N5CCCN(C)CC5)cc4oc3=O)nc12 [Compound 401, 7-(4-methyl-1,4-diazepan-1-yl)-3-[8-(methylsulfanyl)imidazo[1,2-a]pyrazin-2-yl]-2H-chromen-2-one]	1 to 3	* (maximum fold increase of ≤1.2)	–	–
O=c1oc2cc(N3C[C@@H]4C[C@H]3CN4)ccc2cc1-c1cn2cccnc2n1 [Compound 129, 7-[(1S,4S)-2,5-diazabicyclo[2.2.1]hept-2-yl]-3-(imidazo[1,2a]pyrimidin-2-yl)-2H-chromen-2-one hydrochloride (1:3)]	0.3 to 1	** (fold increase between >1.2 and ≤1.35)	–	–
Cc1cn2cc(-c3cc4ccc(N5CC6(CN(C)C6)C5)cc4oc3=O)nc2c(C)n1 [Compound 972, 3-(6,8-dimethylimidazo[1,2-a]pyrazin-2-yl)-7-(6-methyl-2,6-diazaspiro[3.3]hept-2-yl)-2H-chromen-2-one]	0.3 to 1	*** (fold increase between >1.35 and ≤1.5)	3000 to 10000	–
Cc1nc(Cl)cn2cc(-c3cc4ccc(N5C[C@@H]6C[C@H]5CN6)cc4oc3=O)nc12 [Compound 780, 3-(6-chloro-8-methylimidazo[1,2-a]pyrazin-2-yl)-7-[(1S,4S)-2,5-diazabicyclo[2.2.1]hept-2-yl]-2H-chromen-2-one]	< 0.1	**** (fold increase between >1.5 and ≤1.65)	< 300	–
Cc1cn2cc(-c3cc4ccc(N5CCNC(C)(C)C5)cc4oc3=O)nc2c(C)n1 [Compound 736, 3-(6,8-dimethylimidazo[1,2-a]pyrazin-2-yl)-7-(3,3-dimethylpiperazin-1-yl)-2H-chromen-2-one]	< 0.1	***** (fold increase >1.65)	< 300	–
O=c1oc2cc(N3CCNCC3)ccc2cc1-c1cn2cc(F)ccc2n1 [Compound 103, 3-(6-fluoroimidazo[1,2-a]pyridin-2-yl)-7-(piperazin-1-yl)-2H-chromen-2-one]	0.3 to 1	** (fold increase between >1.2 and ≤1.35)	–	–
Cc1cn2cc(-c3cc4ccc(N[C@H]5CCNC5)cc4oc3=O)nc2c(C)n1 [Cpd 563, 3-(6,8-dimethylimidazo[1,2-a]pyrazin-2-yl)-7-[(3S)-pyrrolidin-3-ylamino]-2H-chromen-2-one]	< 0.1	***** (fold increase >1.65)	< 300	–
Cc1cn2cc(-c3cc4ccc(N5CC(CN)C5)cc4oc3=O)nc2c(C)n1 [Compound 963, 7-[3-(aminomethyl)azetidin-1-yl]-3-(6,8-dimethylimidazo[1,2-a]pyrazin-2-yl)-2H-chromen-2-one]	0.3 to 1	*** (fold increase between >1.35 and ≤1.5)	–	–
Cc1cn2cc(-c3cc4ccc(N5CCN(C)CC5)cc4oc3=O)nc2c(C)n1 [Compound 516, 3-(6,8-dimethylimidazo[1,2-a]pyrazin-2-yl)-7-(4-methylpiperazin-1-yl)-2H-chromen-2-one]	< 0.1	***** (fold increase >1.65)	< 300	–
Cc1cn2cc(-c3cc4ccc(N5CCCN(C(C)C)CC5)cc4oc3=O)cc2cn1 [Compound 753, 3-(3-methylpyrrolo[1,2-a]pyrazin-7-yl)-7-[4-(propan-2-yl)-1,4-diazepan-1-yl]-2H-chromen-2-one]	< 0.1	*** (fold increase between >1.35 and ≤1.5)	1000 to 3000	–
Cl.O=c1oc2cc(N3CCNCC3)ccc2cc1-c1nc2c(F)cccc2o1 [Compound 40, 3-(4-fluoro-1,3-benzoxazol-2-yl)-7-(piperazin-1-yl)-2H-chromen-2-one hydrochloride]	1 to 3	** (fold increase between >1.2 and ≤1.35)	–	–
CSc1nccn2cc(-c3cc4ccc(N5CCNCC5)cc4oc3=O)nc12 [Cpd 398, 3-[8-(methylsulfanyl)imidazo[1,2-a]pyrazin-2-yl]-7-(piperazin-1-yl)-2H-chromen-2-one]	1 to 3	* (maximum fold increase of ≤1.2)	–	–
Cc1cn2cc(-c3cc4ccc(C5CCNCC5)cc4oc3=O)ccc2n1 [Cpd 825, 3-(2-methylimidazo[1,2-a]pyridin-6-yl)-7-(piperidin-4-yl)-2H-chromen-2-one]	< 0.1	***** (fold increase >1.65)	< 300	–
3-(6-chloroimidazo[1,2-a]pyrimidin-2-yl)-7-(piperazin-1-yl)-2H-chromen-2-one [Compound 348]	–	* (maximum fold increase of ≤1.2)	–	** (between >1 μM and ≤3 μM)
O=c1oc2cc(N3CCNCC3)ccc2cc1-c1nc2ncccc2o1 [Compound 110, 3-([1,3]oxazolo[4,5-b]pyridin-2-yl)-7-(piperazin-1-yl)-2H-chromen-2-one hydrochloride]	3 to 30	** (fold increase between >1.2 and ≤1.35)	–	–
Cc1cn2cc(-c3cc4ccc(N5CCN(C)[C@@H](C(C)C)C5)cc4oc3=O)nc2c(C)n1 [Compound 809, 3-(6,8-dimethylimidazo[1,2-a]pyrazin-2-yl)-7-[(3S)-4-methyl-3-(propan-2-yl)piperazin-1-yl]-2H-chromen-2-one]	0.3 to 1	**** (fold increase between >1.5 and ≤1.65)	1000 to 3000	–
CN1CCN(c2ccc3cc(-c4nc5ncccc5o4)c(=O)oc3c2)CC1 [Compound 111, 7-(4-methylpiperazin-1-yl)-3-([1,3]oxazolo[4,5-b]pyridin-2-yl)-2H-chromen-2-one]	3 to 30	** (fold increase between >1.2 and ≤1.35)	–	–

Reference: patent publication USRE47689E1, “Compounds for treating spinal muscular atrophy” (PTC Therapeutics, Inc., priority 2011, dated 2019)
